According to ChEMBL document CHEMBL1201862, “PubChem BioAssay data set” (2004):
Active and inactive are the calls of the source.

What was measured:
[1] = target: T1, Hexokinase HKDC1 (Homo sapiens, UniProt Q2TB90); assay: analog inhibition of human HKDC1 activity – biochemical, set 2, SAR follow-up (AID 588355); format: functional
T1 sequence (Q2TB90 whole entry): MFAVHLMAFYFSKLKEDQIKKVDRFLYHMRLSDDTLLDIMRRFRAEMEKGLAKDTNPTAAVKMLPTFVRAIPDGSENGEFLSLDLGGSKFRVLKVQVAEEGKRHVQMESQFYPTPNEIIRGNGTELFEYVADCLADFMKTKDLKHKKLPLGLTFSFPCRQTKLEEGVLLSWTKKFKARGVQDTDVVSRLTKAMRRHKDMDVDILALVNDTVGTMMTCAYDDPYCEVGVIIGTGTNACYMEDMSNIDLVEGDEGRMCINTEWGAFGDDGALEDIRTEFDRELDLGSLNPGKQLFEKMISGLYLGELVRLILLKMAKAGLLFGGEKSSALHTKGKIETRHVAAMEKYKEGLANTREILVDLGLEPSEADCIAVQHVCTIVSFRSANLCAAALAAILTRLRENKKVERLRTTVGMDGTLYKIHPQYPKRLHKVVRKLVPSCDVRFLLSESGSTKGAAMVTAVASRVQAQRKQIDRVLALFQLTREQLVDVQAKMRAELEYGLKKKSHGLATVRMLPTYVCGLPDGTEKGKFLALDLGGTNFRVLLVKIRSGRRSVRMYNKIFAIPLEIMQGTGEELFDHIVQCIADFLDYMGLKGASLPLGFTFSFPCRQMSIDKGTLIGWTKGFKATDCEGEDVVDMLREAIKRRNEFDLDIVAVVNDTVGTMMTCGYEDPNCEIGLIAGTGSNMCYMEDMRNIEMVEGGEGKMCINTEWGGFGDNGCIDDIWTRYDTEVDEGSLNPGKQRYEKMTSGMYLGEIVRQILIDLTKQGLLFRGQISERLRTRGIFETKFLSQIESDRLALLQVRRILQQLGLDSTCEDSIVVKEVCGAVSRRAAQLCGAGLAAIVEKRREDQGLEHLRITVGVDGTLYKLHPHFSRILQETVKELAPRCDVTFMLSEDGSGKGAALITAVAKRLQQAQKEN

[2] = target: Cystic fibrosis transmembrane conductance regulator/Golgi-associated PDZ and coiled-coil motif-containing protein (Homo sapiens, UniProt P13569+Q9HD26); assay: potency against CAL PDZ-peptide interaction – biochemical, fluorescence polarization, Cerulean-tagged CAL PDZ, cherry-picks, dose response (AID 504773)
Sequence of Cystic fibrosis transmembrane conductance regulator/Golgi-associated PDZ and coiled-coil motif-containing protein (P13569 whole entry, other chains not shown): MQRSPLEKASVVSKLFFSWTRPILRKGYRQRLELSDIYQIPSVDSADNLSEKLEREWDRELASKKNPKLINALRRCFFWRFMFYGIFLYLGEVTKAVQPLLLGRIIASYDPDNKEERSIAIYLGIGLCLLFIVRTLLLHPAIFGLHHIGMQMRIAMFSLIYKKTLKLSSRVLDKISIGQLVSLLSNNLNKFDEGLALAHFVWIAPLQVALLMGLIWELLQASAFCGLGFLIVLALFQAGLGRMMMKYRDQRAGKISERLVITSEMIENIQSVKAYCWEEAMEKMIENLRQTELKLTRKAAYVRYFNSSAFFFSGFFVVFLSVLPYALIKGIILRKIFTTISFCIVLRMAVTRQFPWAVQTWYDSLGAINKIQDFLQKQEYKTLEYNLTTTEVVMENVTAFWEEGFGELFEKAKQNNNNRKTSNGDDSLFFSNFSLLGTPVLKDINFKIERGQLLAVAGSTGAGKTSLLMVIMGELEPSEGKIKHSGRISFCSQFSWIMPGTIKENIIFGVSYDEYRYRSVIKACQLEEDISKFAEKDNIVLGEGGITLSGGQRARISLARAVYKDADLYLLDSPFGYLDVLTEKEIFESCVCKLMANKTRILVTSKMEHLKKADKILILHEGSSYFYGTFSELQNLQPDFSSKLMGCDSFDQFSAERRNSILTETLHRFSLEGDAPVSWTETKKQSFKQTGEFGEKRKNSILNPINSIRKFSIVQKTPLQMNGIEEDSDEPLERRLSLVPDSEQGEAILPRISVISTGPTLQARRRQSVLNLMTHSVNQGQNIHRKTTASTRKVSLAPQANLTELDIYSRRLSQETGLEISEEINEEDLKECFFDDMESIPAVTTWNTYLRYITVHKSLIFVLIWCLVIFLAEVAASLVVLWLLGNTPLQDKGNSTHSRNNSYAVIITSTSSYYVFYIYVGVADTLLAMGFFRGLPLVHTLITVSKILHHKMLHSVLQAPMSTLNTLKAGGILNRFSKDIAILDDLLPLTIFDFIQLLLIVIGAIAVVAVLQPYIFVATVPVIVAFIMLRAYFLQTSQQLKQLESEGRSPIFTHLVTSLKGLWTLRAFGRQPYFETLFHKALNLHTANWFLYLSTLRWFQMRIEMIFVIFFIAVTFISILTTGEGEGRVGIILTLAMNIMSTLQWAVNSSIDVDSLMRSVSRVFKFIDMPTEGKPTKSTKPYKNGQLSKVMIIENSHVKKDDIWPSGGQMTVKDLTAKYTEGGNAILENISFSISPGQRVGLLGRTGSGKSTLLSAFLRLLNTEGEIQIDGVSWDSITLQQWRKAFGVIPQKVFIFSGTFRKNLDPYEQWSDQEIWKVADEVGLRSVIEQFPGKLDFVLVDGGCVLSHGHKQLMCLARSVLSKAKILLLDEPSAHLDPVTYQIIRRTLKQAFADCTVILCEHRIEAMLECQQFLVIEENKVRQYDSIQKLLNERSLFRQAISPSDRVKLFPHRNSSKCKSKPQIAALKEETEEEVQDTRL

[3] = system: HeLa; assay: viability loss in HeLa cells – cell-based, 24 h, cherry-picked samples, cytotoxicity control, dose response (AID 504726); format: functional; conditions: Homo sapiens;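 note: potency for cytotoxicity as loss of luminescence signal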
[4] = target: ORF 73 (Human herpesvirus 8, UniProt O40947); assay: KSHV LANA DNA-binding disruption – biochemical, fluorescence polarization, cherry-picked samples, dose response (AID 504725); parameters: species or system Human gammaherpesvirus 8;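 note: fluorescence polarization of a labeled DNA duplex reporting LANA DNA binding; potency is for inhibitors that block LANA binding to the DNA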
Sequence of ORF 73 (O40947 whole entry): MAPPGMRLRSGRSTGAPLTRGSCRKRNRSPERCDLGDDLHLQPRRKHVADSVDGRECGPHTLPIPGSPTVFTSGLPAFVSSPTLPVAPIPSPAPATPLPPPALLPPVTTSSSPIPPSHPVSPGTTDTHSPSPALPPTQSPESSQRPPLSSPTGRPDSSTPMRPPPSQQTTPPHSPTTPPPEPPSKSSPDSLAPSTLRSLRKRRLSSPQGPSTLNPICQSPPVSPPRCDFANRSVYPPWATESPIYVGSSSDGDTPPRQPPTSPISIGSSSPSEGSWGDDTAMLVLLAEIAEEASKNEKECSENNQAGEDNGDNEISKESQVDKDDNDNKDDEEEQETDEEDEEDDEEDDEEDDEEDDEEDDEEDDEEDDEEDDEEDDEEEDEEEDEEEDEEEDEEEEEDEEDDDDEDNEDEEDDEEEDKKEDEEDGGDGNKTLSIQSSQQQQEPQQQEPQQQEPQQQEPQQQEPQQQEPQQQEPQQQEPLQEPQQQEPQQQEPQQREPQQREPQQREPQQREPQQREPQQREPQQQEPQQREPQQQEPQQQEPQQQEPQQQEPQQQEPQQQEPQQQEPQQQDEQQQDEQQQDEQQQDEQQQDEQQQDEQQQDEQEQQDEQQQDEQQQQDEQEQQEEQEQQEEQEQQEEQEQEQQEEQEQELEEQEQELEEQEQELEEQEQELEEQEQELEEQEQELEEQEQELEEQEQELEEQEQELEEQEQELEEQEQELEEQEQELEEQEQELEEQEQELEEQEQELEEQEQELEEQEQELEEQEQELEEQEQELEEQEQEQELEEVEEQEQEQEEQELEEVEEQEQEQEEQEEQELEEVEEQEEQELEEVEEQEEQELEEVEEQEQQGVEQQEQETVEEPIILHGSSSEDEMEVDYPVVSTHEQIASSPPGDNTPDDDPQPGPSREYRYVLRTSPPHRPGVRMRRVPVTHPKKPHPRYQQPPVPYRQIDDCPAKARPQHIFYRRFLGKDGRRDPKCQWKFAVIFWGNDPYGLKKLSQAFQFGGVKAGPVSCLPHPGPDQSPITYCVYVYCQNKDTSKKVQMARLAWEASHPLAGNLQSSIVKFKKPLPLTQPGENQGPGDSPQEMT

[5] = target: T2, Insulin-degrading enzyme (Homo sapiens, UniProt P14735); assay: cellular IDE activation of Abeta substrate cleavage – fluorescence polarization, HEK cells, dose response (AID 588439); format: functional, cell-based
T2 sequence (P14735 whole entry): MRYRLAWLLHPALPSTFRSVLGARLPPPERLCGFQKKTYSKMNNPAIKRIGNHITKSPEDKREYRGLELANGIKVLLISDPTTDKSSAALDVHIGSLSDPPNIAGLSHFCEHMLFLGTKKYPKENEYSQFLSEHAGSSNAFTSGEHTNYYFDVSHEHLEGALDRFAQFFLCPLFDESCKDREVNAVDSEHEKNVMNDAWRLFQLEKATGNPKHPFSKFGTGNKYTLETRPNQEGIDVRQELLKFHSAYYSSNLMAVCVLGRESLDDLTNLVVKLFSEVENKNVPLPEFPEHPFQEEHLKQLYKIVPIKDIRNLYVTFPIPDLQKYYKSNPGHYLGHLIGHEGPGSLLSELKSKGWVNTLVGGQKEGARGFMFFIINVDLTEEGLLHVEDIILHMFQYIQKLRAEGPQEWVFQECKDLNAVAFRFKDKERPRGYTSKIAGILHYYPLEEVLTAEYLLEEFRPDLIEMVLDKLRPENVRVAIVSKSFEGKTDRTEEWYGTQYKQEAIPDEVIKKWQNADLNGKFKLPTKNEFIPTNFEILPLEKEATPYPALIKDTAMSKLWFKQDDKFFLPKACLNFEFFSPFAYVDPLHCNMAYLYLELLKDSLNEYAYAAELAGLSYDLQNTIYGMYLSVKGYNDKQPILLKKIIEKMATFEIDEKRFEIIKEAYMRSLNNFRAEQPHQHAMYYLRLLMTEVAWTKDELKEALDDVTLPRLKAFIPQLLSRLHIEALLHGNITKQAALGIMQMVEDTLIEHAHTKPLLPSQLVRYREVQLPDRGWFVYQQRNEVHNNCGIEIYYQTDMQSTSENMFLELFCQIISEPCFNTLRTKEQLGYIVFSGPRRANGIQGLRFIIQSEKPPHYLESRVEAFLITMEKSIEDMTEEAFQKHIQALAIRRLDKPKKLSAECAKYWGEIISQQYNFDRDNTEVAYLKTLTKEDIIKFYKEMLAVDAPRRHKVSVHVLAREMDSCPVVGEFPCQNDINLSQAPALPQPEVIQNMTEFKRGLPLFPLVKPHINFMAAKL

[6] = target: Histone-lysine N-methyltransferase NSD2 (Homo sapiens, UniProt O96028); format: biochemical
Sequence of Histone-lysine N-methyltransferase NSD2 (O96028 whole entry): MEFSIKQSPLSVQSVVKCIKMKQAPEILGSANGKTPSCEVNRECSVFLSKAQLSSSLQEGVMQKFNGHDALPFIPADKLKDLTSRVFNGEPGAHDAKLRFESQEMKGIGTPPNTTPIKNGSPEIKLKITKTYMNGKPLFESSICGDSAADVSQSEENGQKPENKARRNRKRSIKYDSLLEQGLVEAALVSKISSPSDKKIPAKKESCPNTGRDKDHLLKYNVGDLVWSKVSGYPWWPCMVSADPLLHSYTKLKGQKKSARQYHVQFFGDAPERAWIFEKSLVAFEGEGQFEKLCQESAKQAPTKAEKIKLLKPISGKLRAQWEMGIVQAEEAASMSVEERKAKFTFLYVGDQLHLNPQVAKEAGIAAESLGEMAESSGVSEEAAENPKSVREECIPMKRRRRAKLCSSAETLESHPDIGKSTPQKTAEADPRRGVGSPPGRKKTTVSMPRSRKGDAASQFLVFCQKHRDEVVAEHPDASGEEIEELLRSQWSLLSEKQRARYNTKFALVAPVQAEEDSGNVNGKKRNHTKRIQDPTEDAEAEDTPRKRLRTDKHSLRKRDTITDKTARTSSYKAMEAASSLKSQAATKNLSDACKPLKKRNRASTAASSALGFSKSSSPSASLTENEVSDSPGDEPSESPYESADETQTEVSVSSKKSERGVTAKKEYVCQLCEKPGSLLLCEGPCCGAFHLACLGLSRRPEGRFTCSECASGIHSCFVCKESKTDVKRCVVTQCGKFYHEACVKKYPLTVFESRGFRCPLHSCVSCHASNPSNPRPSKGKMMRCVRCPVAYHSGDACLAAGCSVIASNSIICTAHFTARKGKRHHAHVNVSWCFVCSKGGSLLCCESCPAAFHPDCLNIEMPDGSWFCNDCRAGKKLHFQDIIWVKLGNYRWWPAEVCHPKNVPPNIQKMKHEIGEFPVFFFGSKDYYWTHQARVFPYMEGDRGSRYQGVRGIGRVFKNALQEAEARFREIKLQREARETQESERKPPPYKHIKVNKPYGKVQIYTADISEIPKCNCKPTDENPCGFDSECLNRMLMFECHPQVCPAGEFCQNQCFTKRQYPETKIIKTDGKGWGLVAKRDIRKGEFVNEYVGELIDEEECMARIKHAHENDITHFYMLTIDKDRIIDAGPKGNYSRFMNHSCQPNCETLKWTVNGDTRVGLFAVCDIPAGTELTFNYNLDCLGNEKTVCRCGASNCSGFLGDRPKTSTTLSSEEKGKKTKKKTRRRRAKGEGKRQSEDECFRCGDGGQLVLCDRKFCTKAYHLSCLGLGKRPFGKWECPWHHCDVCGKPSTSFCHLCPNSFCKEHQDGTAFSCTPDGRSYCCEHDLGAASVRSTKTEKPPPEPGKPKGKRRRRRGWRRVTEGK

[7] = Luminescence Cell-Based Dose Retest to Confirm Inhibitors of Cancer Stem Cells. [Related pubchem assays (depositor defined):AID2717, AID2721]; format: functional; conditions: Homo sapiens
[8] = cells; format: functional, cell-based
[9] = HEK-293T viability loss after treatment – luminescence, T-cell screen hits, cytotoxicity control for TCR NF-kB inhibitor project, dose response (AID 489026); format: functional, cell-based;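 note: cells exposed to compound about 14 hours before the viability readout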
[10] = system: Jurkat; assay: SAR Analysis of small molecule inhibitors of T-cell specific antigen receptor-induced NF-kB activation in a Jurkat cell line using a luminescence assay - Set 2. [Related pubchem assays (depositor defined):AID435003, AID435012, AID465]; format: functional, cell-based; conditions: Homo sapiens
[11] = target: T3, Streptokinase A (Streptococcus pyogenes serotype M1, UniProt P10520); assay: viability-normalized secreted streptokinase activity reduction – plasminogen activation absorbance, OD405, dose response (AID 1914); format: functional, Streptococcus pyogenes M1 GAS;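 note: secreted streptokinase activity via plasminogen activation per viability signal from cell pellet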
T3 sequence (P10520 whole entry): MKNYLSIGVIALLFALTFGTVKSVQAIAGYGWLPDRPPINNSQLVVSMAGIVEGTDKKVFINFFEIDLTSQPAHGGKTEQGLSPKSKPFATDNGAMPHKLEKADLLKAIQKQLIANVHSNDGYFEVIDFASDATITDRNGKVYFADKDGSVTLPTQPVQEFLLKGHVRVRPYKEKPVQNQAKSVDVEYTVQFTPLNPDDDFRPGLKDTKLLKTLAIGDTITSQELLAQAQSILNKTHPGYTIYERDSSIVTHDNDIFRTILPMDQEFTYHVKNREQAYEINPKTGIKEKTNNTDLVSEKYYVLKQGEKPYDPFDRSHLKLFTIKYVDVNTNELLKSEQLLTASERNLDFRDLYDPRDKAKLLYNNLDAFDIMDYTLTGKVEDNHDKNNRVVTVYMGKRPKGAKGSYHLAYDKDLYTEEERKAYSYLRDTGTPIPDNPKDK

CCc1ccc2c(c1)C(NC(C)=O)C(=O)N2CCN1CCOCC1 (stereo unspecified)
IC50 [1]: 7.56 µM (active)

COc1ccc2noc3c2c1C(=O)c1ccccc1-3
AC50 [2]: > 500 µM (inactive) | AC50 [3]: 74.7 µM (active) | AC50 [4]: 0.228 µM (active) | EC50 [5]: > 54.7 µM (inactive) | AC50 [6]: > 20 µM (inactive)

CCCCC(=O)NC(c1ccco1)c1cc(Cl)c2cccnc2c1O (stereo unspecified)
AC50 [7]: 3.33 µM (active)

CCCCC(=O)NC(c1ccc(Cl)cc1)c1ccc2cccnc2c1O (stereo unspecified)
EC50 [8]: 59.9 µM (active) | IC50 [9]: > 80 µM (inactive) | IC50 [10]: 5.28 µM (active)

O=C(N/N=C/c1ccccc1O)/C(O)=C\C1=NC2(CCCC2)Cc2ccccc21
EC50 [11]: > 150 µM (not active)
